# In patent US20260262643A1, “HERBICIDAL BENZOXAZINES” (FMC CORPORATION, priority 2022, published 2026):
# Experiments:
# [1] = test system: ryegrass, Italian; test: Test A postemergence; type: in vivo, Lolium multiflorum; conditions: postemergence, 10 days; for Ryegrass, Italian plant response rating: 125 g ai/ha, 0 to 100 scale, 0 no effect, 100 complete control; for Plant response rating, Ryegrass, Italian: 500 g ai/ha, visual injury, 0 to 100 scale (0 no effect, 100 complete control)
# Summary of the method: (§1)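 Loam/sand soil; pre-em directed soil spray at planting, post-em spray at 1–2 leaf (2–10 cm). Compound in non-phytotoxic solvent + surfactant. Greenhouse 10 d; visual injury vs untreated, 0 = no effect, 100 = complete control.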
# [2] = test system: foxtail, giant; test: Test A postemergence; type: in vivo, Setaria faberi; conditions: postemergence, 10 days; for Foxtail, Giant plant response rating: 125 g ai/ha, 0 to 100 scale, 0 no effect, 100 complete control; for Plant response rating, Foxtail, Giant: 500 g ai/ha, visual injury, 0 to 100 scale (0 no effect, 100 complete control)
# Summary of the method: as §1
# [3] = test system: corn; test: Test A postemergence; type: in vivo, Zea mays; conditions: postemergence, 10 days; for Corn plant response rating: 125 g ai/ha, 0 to 100 scale, 0 no effect, 100 complete control; for Plant response rating, Corn: 500 g ai/ha, visual injury, 0 to 100 scale (0 no effect, 100 complete control)
# Summary of the method: as §1
# [4] = test system: foxtail, giant; test: Test A preemergence; type: in vivo, Setaria faberi; conditions: 0 to 100 scale
# Summary of the method: as §1
# [5] = test system: blackgrass; test: Test A preemergence; type: in vivo, Alopecurus myosuroides; conditions: 0 to 100 scale
# Summary of the method: as §1
# [6] = test system: ragweed; test: Test A preemergence; type: in vivo, Ambrosia artemisiifolia; conditions: 0 to 100 scale
# Summary of the method: as §1
# [7] = test system: oat, wild; test: Test A postemergence; type: in vivo, Avena fatua; conditions: postemergence, 10 days; for Oat, Wild plant response rating: 125 g ai/ha, 0 to 100 scale, 0 no effect, 100 complete control; for Plant response rating, Oat, Wild: 500 g ai/ha, visual injury, 0 to 100 scale (0 no effect, 100 complete control)
# Summary of the method: as §1
# [8] = test system: pigweed, palmer; test: Test A postemergence; type: in vivo, Amaranthus palmeri; conditions: postemergence, 10 days; for Pigweed, Palmer plant response rating: 125 g ai/ha, 0 to 100 scale, 0 no effect, 100 complete control; for Plant response rating, Pigweed, Palmer: 500 g ai/ha, visual injury, 0 to 100 scale (0 no effect, 100 complete control)
# Summary of the method: as §1
# [9] = test system: barnyardgrass; test: Test A postemergence; type: in vivo, Echinochloa crusgalli; conditions: postemergence, 10 days; for Barnyardgrass plant response rating: 125 g ai/ha, 0 to 100 scale, 0 no effect, 100 complete control; for Plant response rating, Barnyardgrass: 500 g ai/ha, visual injury, 0 to 100 scale (0 no effect, 100 complete control)
# Summary of the method: as §1
# [10] = test system: rice; test: Test B flooded paddy test; type: in vivo, Oryza sativa; conditions: 250 g ai/ha, Flood, 13 days, 0 to 100 scale (0 no effect, 100 complete control)
# Summary of the method: (§2)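 Flooded to 3 cm at treatment time, 2-leaf plants got the test compound applied straight into the paddy water. They then stayed under constant flood in a greenhouse for 13 days. Ratings used a 0 to 100 visual scale.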
# [11] = test system: pigweed, palmer; test: Test A preemergence; type: in vivo, Amaranthus palmeri; conditions: 0 to 100 scale
# Summary of the method: as §1
# [12] = test system: oat, wild; test: Test A preemergence; type: in vivo, Avena fatua; conditions: 0 to 100 scale
# Summary of the method: as §1
# [13] = test system: kochia; test: Test A postemergence; type: in vivo, Bassia scoparia; conditions: postemergence, 10 days; for Kochia plant response rating: 125 g ai/ha, 0 to 100 scale, 0 no effect, 100 complete control; for Plant response rating, Kochia: 500 g ai/ha, visual injury, 0 to 100 scale (0 no effect, 100 complete control)
# Summary of the method: as §1
# [14] = test system: ryegrass, Italian; test: Test A preemergence; type: in vivo, Lolium multiflorum; conditions: 0 to 100 scale
# Summary of the method: as §1
# [15] = test system: soybean; test: Test A postemergence; type: in vivo, Glycine max; conditions: postemergence, 10 days; for Soybean plant response rating: 125 g ai/ha, 0 to 100 scale, 0 no effect, 100 complete control; for Plant response rating, Soybean: 500 g ai/ha, visual injury, 0 to 100 scale (0 no effect, 100 complete control)
# Summary of the method: as §1
# [16] = test system: barnyardgrass; test: Test B flooded paddy test; type: in vivo, Echinochloa crus-galli; conditions: 250 g ai/ha, Flood, 13 days, 0 to 100 scale (0 no effect, 100 complete control)
# Summary of the method: as §2
# [17] = test system: wheat; test: Test A postemergence; type: in vivo, Triticum aestivum; conditions: postemergence, 10 days; for Wheat plant response rating: 125 g ai/ha, 0 to 100 scale, 0 no effect, 100 complete control; for Plant response rating, Wheat: 500 g ai/ha, visual injury, 0 to 100 scale (0 no effect, 100 complete control)
# Summary of the method: as §1
# [18] = test system: galium; test: Test A postemergence; type: in vivo, Galium aparine; conditions: postemergence, 10 days; for Galium plant response rating: 125 g ai/ha, 0 to 100 scale, 0 no effect, 100 complete control; for Plant response rating, Galium: 500 g ai/ha, visual injury, 0 to 100 scale (0 no effect, 100 complete control)
# Summary of the method: as §1
# [19] = test system: corn; test: Test A preemergence; type: in vivo, Zea mays; conditions: 0 to 100 scale
# Summary of the method: as §1
# [20] = test system: horseweed; test: Test A postemergence; type: in vivo, Erigeron canadensis; conditions: postemergence, 10 days; for Horseweed plant response rating: 125 g ai/ha, 0 to 100 scale, 0 no effect, 100 complete control; for Plant response rating, Horseweed: 500 g ai/ha, visual injury, 0 to 100 scale (0 no effect, 100 complete control)
# Summary of the method: as §1
# [21] = test system: ducksalad; test: Test B flooded paddy test; type: in vivo, Heteranthera limosa; conditions: 250 g ai/ha, Flood, 13 days, 0 to 100 scale (0 no effect, 100 complete control)
# Summary of the method: as §2
# [22] = test system: wheat; test: Test A preemergence; type: in vivo, Triticum aestivum; conditions: 0 to 100 scale
# Summary of the method: as §1
# [23] = test system: soybean; test: Test A preemergence; type: in vivo, Glycine max; conditions: 0 to 100 scale
# Summary of the method: as §1
# [24] = test system: blackgrass; test: Test A postemergence; type: in vivo, Alopecurus myosuroides; conditions: postemergence, 10 days; for Blackgrass plant response rating: 125 g ai/ha, 0 to 100 scale, 0 no effect, 100 complete control; for Plant response rating, Blackgrass: 500 g ai/ha, visual injury, 0 to 100 scale (0 no effect, 100 complete control)
# Summary of the method: as §1
# [25] = test system: barnyardgrass; test: Test A preemergence; type: in vivo, Echinochloa crusgalli; conditions: visual injury after 10 days, 0 to 100 scale, 0 is no effect, 100 is complete control
# Summary of the method: as §1
# [26] = test system: ragweed; test: Test A postemergence; type: in vivo, Ambrosia artemisiifolia; conditions: postemergence, 10 days; for Ragweed plant response rating: 125 g ai/ha, 0 to 100 scale, 0 no effect, 100 complete control; for Plant response rating, Ragweed: 500 g ai/ha, visual injury, 0 to 100 scale (0 no effect, 100 complete control)
# Summary of the method: as §1
# [27] = test system: kochia; test: Test A preemergence; type: in vivo, Bassia scoparia; conditions: 0 to 100 scale
# Summary of the method: as §1
# [28] = test system: sedge, umbrella; test: Test B flooded paddy test; type: in vivo, Cyperus difformis; conditions: 250 g ai/ha, Flood, 13 days, 0 to 100 scale (0 no effect, 100 complete control)
# Summary of the method: as §2
# [29] = 500 g ai/ha, visual injury after 10 days, 0 is no effect, 100 is complete control
compound,measurement,setting,value
CC(C)c1ncn(-c2ccc(C#N)c(C(=O)N3C[C@H](C)Oc4c(Cl)cccc43)c2)n1 [Compound 140],"Ryegrass, Italian plant response rating",[1],40
same,"Plant response rating, Ryegrass, Italian",[1],50
same,"Foxtail, Giant plant response rating",[2],90
same,"Plant response rating, Foxtail, Giant",[2],90
same,Corn plant response rating,[3],70
same,"Plant response rating, Corn",[3],90
same,"Plant response rating, Foxtail, Giant",[4]; 125 g ai/ha,90
same,"Plant response rating, Foxtail, Giant",[4]; [29],100
same,"Plant response rating, Blackgrass",[5]; 125 g ai/ha,40
same,"Plant response rating, Blackgrass",[5]; [29],70
same,"Plant response rating, Ragweed",[6]; 125 g ai/ha,0
same,"Plant response rating, Ragweed",[6]; [29],30
same,"Oat, Wild plant response rating",[7],0
same,"Plant response rating, Oat, Wild",[7],50
same,"Pigweed, Palmer plant response rating",[8],70
same,"Plant response rating, Pigweed, Palmer",[8],90
same,Barnyardgrass plant response rating,[9],50
same,"Plant response rating, Barnyardgrass",[9],70
same,"Plant response rating, Rice",[10],0
same,"Plant response rating, Pigweed, Palmer",[11]; 125 g ai/ha,100
same,"Plant response rating, Pigweed, Palmer",[11]; [29],100
same,"Plant response rating, Oat, Wild",[12]; 125 g ai/ha,30
same,"Plant response rating, Oat, Wild",[12]; [29],70
same,Kochia plant response rating,[13],90
same,"Plant response rating, Kochia",[13],90
same,"Plant response rating, Ryegrass, Italian",[14]; 125 g ai/ha,50
same,"Plant response rating, Ryegrass, Italian",[14]; [29],70
same,Soybean plant response rating,[15],100
same,"Plant response rating, Soybean",[15],100
same,"Plant response rating, Barnyardgrass",[16],20
same,Wheat plant response rating,[17],30
same,"Plant response rating, Wheat",[17],60
same,Galium plant response rating,[18],70
same,"Plant response rating, Galium",[18],70
same,"Plant response rating, Corn",[19]; 125 g ai/ha,0
same,"Plant response rating, Corn",[19]; [29],10
same,Horseweed plant response rating,[20],0
same,"Plant response rating, Horseweed",[20],0
same,"Plant response rating, Ducksalad",[21],40
same,"Plant response rating, Wheat",[22]; 125 g ai/ha,20
same,"Plant response rating, Wheat",[22]; [29],50
same,"Plant response rating, Soybean",[23]; 125 g ai/ha,50
same,"Plant response rating, Soybean",[23]; [29],100
same,Blackgrass plant response rating,[24],70
same,"Plant response rating, Blackgrass",[24],80
same,"Plant response rating, Barnyardgrass",[25]; 125 g ai/ha,90
same,"Plant response rating, Barnyardgrass",[25]; 500 g ai/ha,90
same,Ragweed plant response rating,[26],20
same,"Plant response rating, Ragweed",[26],40
same,"Plant response rating, Kochia",[27]; 125 g ai/ha,80
same,"Plant response rating, Kochia",[27]; [29],90
same,"Plant response rating, Sedge, Umbrella",[28],75
CC(C)c1ncn(-c2ccc(OCC(F)(F)F)c(C(=O)N3C[C@H](C)Oc4c(Cl)cccc43)c2)n1 [Compound 141],"Ryegrass, Italian plant response rating",[1],30
same,"Plant response rating, Ryegrass, Italian",[1],90
same,"Foxtail, Giant plant response rating",[2],60
same,"Plant response rating, Foxtail, Giant",[2],100
same,Corn plant response rating,[3],90
same,"Plant response rating, Corn",[3],90
same,"Plant response rating, Foxtail, Giant",[4]; 125 g ai/ha,90
same,"Plant response rating, Foxtail, Giant",[4]; [29],100
same,"Plant response rating, Blackgrass",[5]; 125 g ai/ha,20
same,"Plant response rating, Blackgrass",[5]; [29],70
same,"Plant response rating, Ragweed",[6]; 125 g ai/ha,0
same,"Plant response rating, Ragweed",[6]; [29],50
same,"Oat, Wild plant response rating",[7],10
same,"Plant response rating, Oat, Wild",[7],20
same,"Pigweed, Palmer plant response rating",[8],70
same,"Plant response rating, Pigweed, Palmer",[8],100
same,Barnyardgrass plant response rating,[9],30
same,"Plant response rating, Barnyardgrass",[9],70
same,"Plant response rating, Rice",[10],10
same,"Plant response rating, Pigweed, Palmer",[11]; 125 g ai/ha,100
same,"Plant response rating, Pigweed, Palmer",[11]; [29],100
same,"Plant response rating, Oat, Wild",[12]; 125 g ai/ha,60
same,"Plant response rating, Oat, Wild",[12]; [29],80
same,Kochia plant response rating,[13],80
same,"Plant response rating, Kochia",[13],90
same,"Plant response rating, Ryegrass, Italian",[14]; 125 g ai/ha,90
same,"Plant response rating, Ryegrass, Italian",[14]; [29],100
same,Soybean plant response rating,[15],100
same,"Plant response rating, Soybean",[15],100
same,"Plant response rating, Barnyardgrass",[16],25
same,Wheat plant response rating,[17],10
same,"Plant response rating, Wheat",[17],20
same,Galium plant response rating,[18],80
same,"Plant response rating, Galium",[18],100
same,"Plant response rating, Corn",[19]; 125 g ai/ha,10
same,"Plant response rating, Corn",[19]; [29],10
same,Horseweed plant response rating,[20],0
same,"Plant response rating, Horseweed",[20],0
same,"Plant response rating, Ducksalad",[21],30
same,"Plant response rating, Wheat",[22]; 125 g ai/ha,20
same,"Plant response rating, Wheat",[22]; [29],30
same,"Plant response rating, Soybean",[23]; 125 g ai/ha,80
same,"Plant response rating, Soybean",[23]; [29],80
same,Blackgrass plant response rating,[24],30
same,"Plant response rating, Blackgrass",[24],80
same,"Plant response rating, Barnyardgrass",[25]; 125 g ai/ha,70
same,"Plant response rating, Barnyardgrass",[25]; 500 g ai/ha,90
same,Ragweed plant response rating,[26],30
same,"Plant response rating, Ragweed",[26],60
same,"Plant response rating, Kochia",[27]; 125 g ai/ha,0
same,"Plant response rating, Kochia",[27]; [29],50
same,"Plant response rating, Sedge, Umbrella",[28],95
